# Measured values published in patent US20070258889A1, “NOVEL NANOPARTICLES AND USE THEREOF” (Montana State University, priority 2005, published 2007).
# Legend:
# [1] = Singlet oxygen production assay (TEMP to TEMPO, EPR); details: 20 μM reactive dye, 50 mM TEMP, DPBS pH 7.4; free dye
# Method: In order to analyze the singlet O2 production by protein RuIphen composite, the conversion of TEMP to TEMPO by singlet O2 was monitored by EPR. Briefly, the light induced production of singlet O2 assay was conducted in a serum vial open to the air with vigorous stirring. The reaction was conducted in 50 mM TEMP with DPBS at pH 7.4. The each of the reactions were normalized to 20 μM reactive dye (RuIphen or Rose Bengal). At each time point, 100 μL of the solution was removed and added to 10 μL of 1M sodium azide to quench the singlet O2 production. Hsp G41CRu was labeled with two different loadings of RuIphen 51% and 82%. […] In order to probe the loss of EPR signal in the free Ru^∥bpy3 control, free Ru^∥bpy3 was illuminated in the presence of purchased TEMPO both in the presence and absence of molecular O2.
# Singlet Oxygen Production Assay. In a 3 mL clear glass serum vial (Wheaton), 20 µM ruthenium (either free or attached to protein cage) and 50 mM 2,2,6,6-tetramethyl-4-piperidone (TEMP) final concentration was added to DPBS pH 7.4. […] For the oxygen-free reaction, the serum vials are sealed and degassed under nitrogen The light was quantitated using an Extech Instrument EasyView light meter to be 511, 700 I×. […]
# [2] = room temperature; cited from earlier work
# [3] = Solubility (saturation); format: physicochemical; details: with 1% DMF, aqueous buffer, room temperature, solutions in which the protein cages are stable
# [4] = system: platlets and neutrophils; details: cited from earlier work
# [5] = system: tumor angiogenesis; details: mice; cited from earlier work
# [6] = system: tumor lung colonization; details: mouse, in vivo; cited from earlier work
# [7] = system: tumor cells; details: cited from earlier work
compound,measurement,setting,value
O=C([O-])c1c(Cl)c(Cl)c(Cl)c(Cl)c1-c1c2cc(I)c(=O)c(I)c-2oc2c(I)c([O-])c(I)cc12.[Na+].[Na+] [Rose Bengal],increase in the amount of TEMPO generated,[1],4 fold
CC(=O)Oc1ccccc1C(=O)O [acetylsalicylic acid],solubility (saturation),[2],~18500 µM
COc1cccc2c1C(=O)c1c(O)c3c(c(O)c1C2=O)C[C@@](O)(C(=O)CO)C[C@@H]3O[C@H]1C[C@H](N)[C@H](O)[C@H](C)O1 [doxorubicin],solubility,[3],~2 µM
O=C1OC2(c3ccc(O)cc3Oc3cc(O)ccc32)c2ccccc21 [fluorescein],solubility,[3],~2 µM
CDPGYIGSRC [peptide 11],toxic effect on platelets and neutrophils,[4],no toxic effect on these cells
same,tumor angiogenesis,[5],inhibits tumor angiogenesis in mice
same,experimental tumor lung colonization,[6],reduces experimental tumor lung colonization
same,invasion of basement membranes by tumor cells,[7],effectively blocks invasion of basement membranes by tumor cells
